Structures can show the parent of a compound that is named as a salt. Where two headings read alike, the source gives them in different places.
Assays:
[1] = test system: denervated supersensitive postsynaptic dopamine receptors; experiment: In vivo functional test: contralateral circling in rats with unilateral 6-hydroxydopamine lesions of the substantia nigra; design: species or system rat; settings: contralateral circling, rats, unilateral 6-hydroxydopamine lesion
Description: Dopamine agonists produce contralateral circling behavior in rats in which unilateral lesions of the substantial nigra are made by prior injection of 6-hydroxydopamine. The circling is thought to be mediated by stimulation of denervated supersensitive postsynaptic dopamine receptors (Marshall and Ungerstedt, 1977, Eur. J. Pharmacol., 41:361-367).

adrenergic α2 receptor = target: T1, adrenergic α2 receptor (Rattus norvegicus, UniProt P22909); experiment: Adrenergic α2 in vitro functional test (rat vas deferens, inhibition of twitch); format: biochemical
T1 sequence (P22909 1-465): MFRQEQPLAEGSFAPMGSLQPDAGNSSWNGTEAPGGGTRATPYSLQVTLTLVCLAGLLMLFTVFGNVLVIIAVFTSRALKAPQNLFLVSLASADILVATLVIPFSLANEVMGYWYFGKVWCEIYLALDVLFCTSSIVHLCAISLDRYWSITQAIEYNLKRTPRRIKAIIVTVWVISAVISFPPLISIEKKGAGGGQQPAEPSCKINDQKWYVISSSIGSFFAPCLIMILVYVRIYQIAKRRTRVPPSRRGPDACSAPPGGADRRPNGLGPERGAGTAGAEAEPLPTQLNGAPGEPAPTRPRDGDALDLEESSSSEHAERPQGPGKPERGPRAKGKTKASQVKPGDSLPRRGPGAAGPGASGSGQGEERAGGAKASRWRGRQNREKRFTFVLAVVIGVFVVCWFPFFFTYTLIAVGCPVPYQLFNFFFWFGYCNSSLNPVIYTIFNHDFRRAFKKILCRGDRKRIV
Procedure: Vasa deferentia from male Sprague-Dawley rats weighing between 150-250 g were removed and placed in isolated organ baths containing Krebs-Henseleitsolution under a resting tension of 1 g. All other set up conditions were identical to those used for the mouse was deferens. Tissues were pretreated with propranolol (1 μM), ascorbic acid (100 μM) and the α1 -adrenergic antagonist prazosin (0.3 or 1 μM) for 60 min before the addition of test compound.

Dopamine D2 receptor [2] = target: Dopamine D2 receptor (Bos taurus, UniProt P20288); experiment: biochemical; format: binding, bovine; settings: for Ki: bovine caudate membranes, 3H-Spiperone, RT, 75 min, read-out: D2 K1
Procedure: (§1) Membranes were prepared using a Brinkmann Polytron and collected by centrifugation. Membrane sources were bovine caudate (D2,D1) or rat cortex (α2). The membranes were washed, resuspended, and incubated at 37° C. for 30 min. in either the presence (rat cortex) of 1 μ/ml adenosine deaminase or absence (bovine caudate) of 0.1 μ/ml adenosine deaminase. Membranes were centrifuged, washed once and frozen at -70° C. until used. Immediately before use, the membranes were thawed, washed once, and resuspended to a final concentration of 0.5-2 mg/ml. Assays were initiated by addition of membranes. For D2 and D1 assays, the radioligands and conditions used were ^3 H-Spiperone (RT, 75 min.) and ^3 H-SCH23390 (37° C., 15 min.), respectively. For α2 assays, ^3 H-PAC (RT, 30 min.) was used Assays were terminated by filtration using a Brandel cell harvester over Whatman GF/B filters that had been pretreated with 0.1% polyethylenimine. […]

Dopamine D1 receptor = Dopamine D1 receptor (Bos taurus, UniProt Q95136); experiment: biochemical; format: binding, bovine; settings: bovine caudate membranes, 3H-SCH23390, 37° C., 15 min; read-out: D1 K1
Procedure: as §1

dopamine D2 receptor [3] = target: dopamine D2 receptor (Mus musculus, UniProt P61168); experiment: biochemical; format: biochemical; settings: for EC50: concentration that produces 50% of the maximal inhibition of twitch, mouse vas deferens, read-out: D2 A50
Procedure: Vasa deferentia from male BALB/C mice weighing approximately 30 g were removed and placed in isolated organ baths containing magnesium-free modified Krebs-Henseleit solution which was gassed with 95% O2 and 5% CO2 and maintained at 37° C. Tissues were set up under resting tension of 0.5 g and stimulated electrically at 60 volts, 0.1 Hz and 1 msec duration to produce a series of twitch responses. Tissues were pretreated with propranolol (1 μM) to block β-adrenoceptors, idazoxan (3 μM) to block α2 -adrenoceptors receptors, and ascorbic acid (100 μM) for 60 min before the addition of test compound.

[4] = concentration that produces 50% of the maximal inhibition of twitch, rat vas deferens, read-out: a2 A50

Dopamine D1 receptor, sequence (Q95136 whole entry): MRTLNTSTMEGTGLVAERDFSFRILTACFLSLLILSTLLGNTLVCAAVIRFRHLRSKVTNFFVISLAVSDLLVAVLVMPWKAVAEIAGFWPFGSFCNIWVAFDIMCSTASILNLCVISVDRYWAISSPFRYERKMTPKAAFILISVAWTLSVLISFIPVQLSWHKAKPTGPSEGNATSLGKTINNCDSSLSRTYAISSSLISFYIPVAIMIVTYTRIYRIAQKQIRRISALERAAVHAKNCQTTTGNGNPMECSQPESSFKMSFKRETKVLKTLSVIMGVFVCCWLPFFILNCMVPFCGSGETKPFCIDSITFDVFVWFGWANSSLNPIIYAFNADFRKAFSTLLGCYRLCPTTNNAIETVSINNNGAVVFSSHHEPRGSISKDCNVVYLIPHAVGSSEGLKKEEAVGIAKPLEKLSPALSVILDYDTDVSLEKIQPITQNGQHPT
dopamine D2 receptor, sequence (P61168 whole entry): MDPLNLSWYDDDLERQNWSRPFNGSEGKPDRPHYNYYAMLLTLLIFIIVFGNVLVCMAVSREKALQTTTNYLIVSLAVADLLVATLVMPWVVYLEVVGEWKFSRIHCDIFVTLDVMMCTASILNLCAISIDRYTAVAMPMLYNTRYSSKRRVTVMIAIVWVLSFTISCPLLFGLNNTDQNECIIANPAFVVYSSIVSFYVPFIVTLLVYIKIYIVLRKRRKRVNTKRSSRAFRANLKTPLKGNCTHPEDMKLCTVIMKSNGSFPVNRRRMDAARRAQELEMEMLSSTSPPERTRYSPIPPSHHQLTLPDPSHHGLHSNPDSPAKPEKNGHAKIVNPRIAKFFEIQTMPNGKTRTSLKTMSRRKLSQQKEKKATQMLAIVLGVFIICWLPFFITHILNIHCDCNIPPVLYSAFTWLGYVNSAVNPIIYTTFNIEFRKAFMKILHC
Dopamine D2 receptor, sequence (P20288 whole entry): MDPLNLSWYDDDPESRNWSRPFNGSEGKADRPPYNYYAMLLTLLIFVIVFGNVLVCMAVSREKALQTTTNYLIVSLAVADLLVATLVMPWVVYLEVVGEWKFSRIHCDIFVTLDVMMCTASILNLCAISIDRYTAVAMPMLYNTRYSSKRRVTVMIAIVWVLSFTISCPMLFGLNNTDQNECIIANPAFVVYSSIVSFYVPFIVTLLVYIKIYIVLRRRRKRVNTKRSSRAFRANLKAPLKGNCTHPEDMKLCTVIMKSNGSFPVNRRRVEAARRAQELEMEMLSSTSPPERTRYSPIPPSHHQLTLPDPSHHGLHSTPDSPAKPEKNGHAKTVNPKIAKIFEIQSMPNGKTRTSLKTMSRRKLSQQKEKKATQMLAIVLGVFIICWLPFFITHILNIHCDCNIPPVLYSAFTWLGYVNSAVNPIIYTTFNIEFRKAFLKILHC

Structure (SMILES)	ED50 [1] [µmol/kg]	EC50 (adrenergic α2 receptor; [4]) [nM]	Selectivity Ratio (D1 K1/D2 K1) (Dopamine D2 receptor [2])	Ki (Dopamine D2 receptor [2]) [nM]	Ki (Dopamine D1 receptor) [nM]	Specificity Ratio (a2 A50/D2 A50) (dopamine D2 receptor [3])	EC50 (dopamine D2 receptor [3]) [nM]	EC50 (adrenergic α2 receptor) [nM]
CCCN(CCOC(C)C)[C@H]1CCc2c(ccc(O)c2O)C1.Cl [Example 1, (S)-5,6,7,8-Tetrahydro-6-[[2-(1-methylethoxy)ethyl]-propylamino]-1,2-naphthalenediol, hydrochloride]	0.004	218	112	65	7240	1480	0.148	–
CCCN(CCOCC)[C@H]1CCc2c(ccc(O)c2O)C1 [Example 2, (S)-6-[[2-(ethoxy)ethyl]propylamino]-5,6,7,8-tetrahydro-1,2-naphthalenediol]	0.004	18.6	20	316	6310	45	0.417	–
CCCN(CCOCC1CC1)[C@H]1CCc2c(ccc(O)c2O)C1 [Example 3]	0.007	195	74	65	4790	1860	0.105	–
CCCN(CCOC(C)CC)[C@H]1CCc2c(ccc(O)c2O)C1 (some centres unmarked) [Example 5]	0.006	245	40	115	4570	1020	0.24	–
CCCN(CCOC1CCCC1)[C@H]1CCc2c(ccc(O)c2O)C1 [Example 6]	0.008	87.1	98	51	5010	537	0.162	–
CCCOCCN(CCC)[C@H]1CCc2c(ccc(O)c2O)C1 [Example 7, (S)-5,6,7,8-tetrahydro-6-[[2-(propoxy)ethyl]propylamino]-1,2-naphthalenediol]	0.002	148	36	129	4680	186	0.794	–
CCCCOCCN(CCC)[C@H]1CCc2c(ccc(O)c2O)C1 [Example 8, (S)-6-[[2-(butoxy)ethyl]propylamino]-5,6,7,8-tetrahydro-1,2-naphthalenediol]	0.004	107	52	112	5890	398	0.269	–
CCN(CCC1CCCO1)[C@H]1CCc2c(O)cccc2C1 (some centres unmarked) [Example 25]	–	> 10000	57	117	6610	> 14100	0.708	–
CCCN(CCOC(C)C)[C@H]1CCc2c(ccc3c2OCO3)C1.Cl [Example 26, (S)-6,7,8,9-Tetrahydro-N-[2-(1-methylethoxy)ethyl]-N-propylnaphtho[1,2-d]-1,3-dioxol-7-amine, hydrochloride]	0.030	–	–	–	–	–	–	–
CCCN(CCOCC)[C@H]1CCc2c(ccc3c2OCO3)C1 [Example 27]	0.100	–	–	–	–	–	–	–
CCCOCCN(CCC)[C@H]1CCc2c(ccc3c2OCO3)C1 [Example 28]	0.100	–	–	–	–	–	–	–
CCCN(CCOC(C)(C)C)[C@H]1CCc2c(ccc3c2OCO3)C1 [Example 29]	0.040	–	–	–	–	–	–	–
CCCN(CCOC(C)C)[C@H]1CCc2c(ccc3oc(=O)oc23)C1 [Example 38, (S)-5,6,7,8-Tetrahydro-6-[[2-(1-methylethoxy)ethyl]-propylamino]-1,2-naphthalenediol, cyclic carbonate, hydrochloride]	0.005	–	–	–	–	–	–	–
CCCN(CCC)[C@H]1CCc2c(ccc(O)c2O)C1 [Example 40, (S)-5,6-dihydroxy-2-(di-n-propyl)aminotetralin, reference compound]	0.009	–	–	–	–	–	–	12.5
